Measurements from publication PMC6749236, “Synthesis of Novel 2-(Het)arylpyrrolidine Derivatives and Evaluation of Their Anticancer and Anti-Biofilm Activity” (Molecules, 2019).
Several values for one entry are separate records, joined by “and”; a condition that tells them apart may be missing. Equal entries are not always repeated. Marks after values point to notes of the source that are not given here.

Assays:
Chang liver cell line = assay: Cytotoxicity assay (Cytell Cell Imaging), normal cell line; type: cell-based; conditions: Homo sapiens, tested at 1–100 µM, three independent experiments, read-out: IC50 Normal Cell Line Chang Liver
[1] = tested on: Vibrio aquamarinus DSM 26054; assay: Biofilm formation, crystal violet assay; type: cell-based; conditions: V. aquamarinus DSM 26054, control = 100%
Protocol: (§1) Bacterial strains and cultivation conditions. For the detection of biofilms, formation strains Vibrio aquamarinus DSM 26054 and Acinetobacter calcoaceticus VKPM B-10353 were used. These strains form biofilms, making them useful for studying biofilms.
(§2) The bacterial strains Acinetobacter calcoaceticus VKPM B-10353, E. coli MG1655 (pRecA-lux), and E. coli MG1655 (pSoxS-lux) were cultivated in Luria–Bertani (LB) medium under constant shaking to early exponential phase at 37 °C. Cells were used immediately for stress induction tests. One hundred micrograms of ampicillin per milliliter were added into LB medium at cultivation of E. coli MG1655 (pRecA-lux) and E. coli MG1655 (pSoxS-lux). Strain V. aquamarinus DSM 26054 was grown in LB medium supplemented with 3% NaCl.
(§3) The test compounds were dissolved in DMSO to the concentration of 1 × 10^−2 M. Then, they were diluted with ethanol. The control solutions were analogous dilutions of DMSO in ethanol. The tested compounds were also compared with the standard antibiotic azithromycin. Azithromycin was dissolved in DMSO to the concentration of 5 × 10^−3 M and then diluted with deionized water.
(§4) Test system for evaluation of biofilms production. To quantify the formation of biofilms, the crystal violet assay was used, with some modifications. The necessary concentrations of the test compounds were prepared as described above.
(§5) V. aquamarinus DSM 26054 was cultivated for 24 h in LB medium supplemented with 3% NaCl in the Innova 40R shaker incubator (New Brunswick Scientific, USA) at 25 °C and 200 rpm. A. calcoaceticus VKPM B-10353 was cultivated for 24 h in LB medium in the Innova 40R shaker incubator (New Brunswick Scientific, Enfield, CT, USA) at 30 °C and 200 rpm. Then, the suspensions of the daily culture of V. aquamarinus DSM 26054 and A. calcoaceticus VKPM B-10353 were diluted with LB medium supplemented with 3% NaCl to the density of 1 × 10^8 cells/mL.
(§6) The resulting suspension (180 μL) was added to the wells of a polystyrene microplate (Nuova Aptaca, Canelli, Italy). To some of the wells, 20 μL of the test substances at various concentrations were added. Since solvents used could also influence the biofilm formation, 20 μL of the appropriate solvent was added to the other part of the wells at same dilutions (control). Six replicates were done for each treatment and control. The microplate was covered with a lid and wrapped with Parafilm (Bemis Company, Inc., Oshkosh, WI, USA).
(§7) After incubation at 25 °C for 72 h, biofilms were stained. The contents in the wells were removed by means of a dispenser. The wells were then carefully washed three times with 250 μL of sterile saline. The microplates were shaken to remove all non-adherent bacteria. Biofilms were fixed with 200 μL of 96% ethanol for 15 min. After the microplates had dried in air, 200 μL of 0.5% crystal violet was introduced into the wells. After 10 min, the dye was removed. The excess dye was removed by washing with water three times. After the microplates were air-dried, the dye in the wells bound to biofilms was dissolved with 200 μL of 96% ethanol. The extraction level (absorption) of crystal violet by ethanol was measured after 60 minutes at a wavelength of 570 nm using a FLUOstar Omega microplate reader (BMG Labtech, Offenburg, Germany) in optical density units (OD570). The intensity of biofilm formation directly corresponds to the intensity of staining of the contents of the wells with the dye. Biofilm formation was determined by the difference between the mean OD readings obtained in the presence of compounds and the control.
(§8) Each experiment was performed in triplicate. The values were expressed as mean + SD. Student’s t-test was used to compare these values. Differences were considered statistically significant at p < 0.05.

[2] = tested on: Acinetobacter calcoaceticus VKPM B-10353; assay: Biofilm formation, crystal violet assay; type: cell-based; conditions: A. calcoaceticus VKPM B-10353; for Biofilm Formation: control = 100%
Protocol: as §1, §2, §3, §4, §5, §6, §7, §8

[3] = tested on: E. coli MG1655 (pSoxS-lux); assay: Prooxidant activity, bacterial lux-biosensor; type: cell-based, Escherichia coli
Text: (§9) E. coli MG1655 (pRecA-lux) was used for the evaluation of the genotoxicity of the synthesized compounds. The biosensor with the PrecA promotor fixes the presence of the factors causing damage of DNA in a cell. The biosensor E. coli MG1655 (pSoxS-lux) was used for the evaluation of prooxidant activity. The biosensor with the PsoxS promoter fixes the production of superoxide anion and NO [75]. Bioluminescent strains were obtained by the transformation of E. coli MG1655 by hybrid plasmids pRecA-lux, pSoxS-lux. The gene cassette luxCDABE Photorhabdus luminescens under the control PrecA promoters was used in this biosensor. This plasmid was created on the basis of pBR322 and contained a selective marker of ampicillin resistance (Amp gene). The strains were kindly furnished by Manukhov I.V., Federal State Unitary Enterprise “GosNIIGenetika”).
as §2
(§10) Biosensors assay procedure. The detailed protocol of toxicity testing by means of a bacterial lux-biosensors is described in the article.
(§11) Calculation. The criterion of toxic influence was bioluminescence intensity change of the test object in the researched sample in comparison with the control sample.
(§12) The induction factor (I) was defined as the relation of luminescence intensity of a lux-biosensor suspension containing tested sample (Lc) to the luminescence intensity of a lux-biosensor control suspension (Lk): I = Lc/Lk.
(§13) Difference reliability of bioluminescence in experiment from control value was estimated by t-criterion with the help of Excel software. The conclusions about sample toxicity were made at p < 0.05.

[4] = tested on: Escherichia coli MG1655 (pRecA-lux); assay: Genotoxicity, bacterial lux-biosensor; type: cell-based
Text: as §9, §2, §10, §11, §12
If at significant differences from control induction factor values were ≤2, the detected genotoxic effect was evaluated as “weak”, if they were in the range from 2 to 10 as “medium”, and above 10 as “strong”. All the experiments were carried out three times independently.
as §13

M-Hela = assay: Cytotoxicity assay (Cytell Cell Imaging, DAPI/propidium iodide), cancer cell line; type: cell-based; conditions: Homo sapiens; M-Hela; tested at 1–100 µM; three independent experiments; read-out: IC50 Cancer Cell Line M-Hela
[5] = concentration range of 10^−9–10^−5 M
[6] = with metabolic activation (+S9), 10^−5 M
[7] = with metabolic activation (+S9), 10^−6 M
[8] = with metabolic activation (+S9), 10^−7 M
[9] = with metabolic activation (+S9), 10^−8 M
[10] = with metabolic activation (+S9), 10^−9 M
[11] = without metabolic activation (-S9), 10^−5 M
[12] = without metabolic activation (-S9), 10^−6 M
[13] = without metabolic activation (-S9), 10^−7 M
[14] = without metabolic activation (-S9), 10^−8 M
[15] = without metabolic activation (-S9), 10^−9 M

SMILES | IC50 (Chang liver cell line) | melting point | Biofilm Formation ([1]; 1 × 10^−5 M) | Biofilm Formation ([1]; 1 × 10^−6 M) | Biofilm Formation ([1]; 1 × 10^−7 M) | Biofilm Formation ([1]; 1 × 10^−8 M) | Biofilm Formation ([1]; 1 × 10^−9 M) | Biofilm Formation ([2]; 1 × 10^−5 M) | Biofilm Formation ([2]; 1 × 10^−6 M) | Biofilm Formation ([2]; 1 × 10^−7 M) | Biofilm Formation ([2]; 1 × 10^−8 M) | Biofilm Formation ([2]; 1 × 10^−9 M) | Prooxidant activity (induction factor) ([3]; 10^−5 M) | Prooxidant activity (induction factor) ([3]; 10^−6 M) | Prooxidant activity (induction factor) ([3]; 10^−7 M) | Prooxidant activity (induction factor) ([3]; 10^−8 M) | Prooxidant activity (induction factor) ([3]; 10^−9 M) | Genotoxicity (induction factor, I) [4, 6] | Genotoxicity (induction factor, I) [4, 7] | Genotoxicity (induction factor, I) [4, 8] | further results
O=C(Nc1ccccc1)N1CCCC1c1ccc(Nc2c([N+](=O)[O-])c(Cl)cc3c2no[n+]3[O-])cc1O (stereo not drawn) [6b, 6-Chloro-4-((3-hydroxy-4-(1-(phenylcarbamoyl)pyrrolidin-2-yl)phenyl)amino)-5-nitrobenzo[c][1,2,5]oxadiazole 1-oxide] | > 100 µM | 165 to 170 °C (dec.) | 89.12% | 39.02 * % | 26.04 * % | 15.42 * % | 8.21 * % | 119.69 * % | 88.44% | 73.93 * % | 70.79 * % | 90.41% | 0.89 ± 0.03 | 1.24 ± 0.11 | 1.04 ± 0.04 | 1.21 ± 0.00 | 1.03 ± 0.10 | 1.23 ± 0.02 | 1.36 ± 0.04 | 1.30 ± 0.02 | Biofilm formation with respect to control, over the investigated concentrations ([2]; 1 × 10^−9–1 × 10^−5 M): both suppressing and stimulating; prooxidant activity, in words ([3]; 10^−9–10^−5 M): did not possess prooxidant activity; detected genotoxic effect, class ([4]; concentration of 10^−5 M): weak (induction factor values were ≤2); detected genotoxic effect, class [4, 5]: medium (in the range from 2 to 10); Genotoxicity (induction factor, I) [4, 9]: 1.31 ± 0.01; Genotoxicity (induction factor, I) [4, 10]: 1.47 ± 0.04; Genotoxicity (induction factor, I) [4, 11]: 1.77 ± 0.04; Genotoxicity (induction factor, I) [4, 12]: 2.15 ± 0.06; Genotoxicity (induction factor, I) [4, 13]: 2.07 ± 0.11; Genotoxicity (induction factor, I) [4, 14]: 2.28 ± 0.12; Genotoxicity (induction factor, I) [4, 15]: 2.34 ± 0.06; IC50 (M-Hela): 56 ± 4.1 µM
COc1ccc(NC(=O)N2CCCC2c2ccc(Nc3c([N+](=O)[O-])c(Cl)cc4c3no[n+]4[O-])cc2O)cc1 (stereo not drawn) [6c, 6-Chloro-4-((3-hydroxy-4-(1-((4-methoxyphenyl)carbamoyl)pyrrolidin-2-yl)phenyl)amino)-5-nitrobenzo[c][1,2,5]oxadiazole 1-oxide] | 62 ± 4.3 µM | 196 to 202 °C (dec.) | 26.65 * % | 18.28 * % | 9.22% and 9.22 * % | 14.67 * % | 13.54% and 13.54 * % | 82.82% | 79.31 * % | 72.77 * % | 55.74 * % | 93.75% | 0.96 ± 0.09 | 1.46 ± 0.03 | 1.68 ± 0.20 | 1.54 ± 0.20 | 1.11 ± 0.03 | 1.35 ± 0.02 | 1.54 ± 0.03 | 1.49 ± 0.02 | prooxidant response, in words ([3]; 10^−8–10^−7 M): weak response; genotoxicity under conditions of metabolic activation, in words ([4]; +S9, concentration range of 10^−7–10^−6 M): registered; detected genotoxic effect, class [4, 5]: medium (in the range from 2 to 10); Genotoxicity (induction factor, I) [4, 9]: 1.37 ± 0.02; Genotoxicity (induction factor, I) [4, 10]: 1.30 ± 0.01; Genotoxicity (induction factor, I) [4, 11]: 2.33 ± 0.04; Genotoxicity (induction factor, I) [4, 12]: 2.82 ± 0.05; Genotoxicity (induction factor, I) [4, 13]: 2.64 ± 0.14; Genotoxicity (induction factor, I) [4, 14]: 2.84 ± 0.02; Genotoxicity (induction factor, I) [4, 15]: 2.67 ± 0.07; IC50 (M-Hela): 26 ± 1.9 µM
O=C(Nc1ccc(Br)cc1)N1CCCC1c1ccc(Nc2c([N+](=O)[O-])c(Cl)cc3c2no[n+]3[O-])cc1O (stereo not drawn) [6d, 4-((4-(1-((4-Bromophenyl)carbamoyl)pyrrolidin-2-yl)-3-hydroxyphenyl)amino)-6-chloro-5-nitrobenzo[c][1,2,5]oxadiazole 1-oxide] | 53 ± 3.8 µM | 166 to 170 °C (dec.) | 63.12% | 24.11 * % | 10.70 * % | 6.46% and 6.46 * % | 67.29 * % | 89.50% | 95.71% | 50.00 * % | 46.95% and 46.95 * % | 79.16 * % | 1.10 ± 0.07 | 1.60 ± 0.23 | 1.11 ± 0.01 | 1.11 ± 0.07 | 1.34 ± 0.09 | 0.66 ± 0.04 | 0.71 ± 0.03 | 0.71 ± 0.05 | prooxidant response, in words ([3]; 10^−6 M): weak response; DNA-damaging property, in words ([4]; 10^−9–10^−5 M, with and without S9): do not belong to the class of DNA-damaging substances; Genotoxicity (induction factor, I) [4, 9]: 0.79 ± 0.03; Genotoxicity (induction factor, I) [4, 10]: 0.76 ± 0.05; Genotoxicity (induction factor, I) [4, 11]: 0.60 ± 0.02; Genotoxicity (induction factor, I) [4, 12]: 0.70 ± 0.01; Genotoxicity (induction factor, I) [4, 13]: 0.62 ± 0.03; Genotoxicity (induction factor, I) [4, 14]: 0.70 ± 0.01; Genotoxicity (induction factor, I) [4, 15]: 0.64 ± 0.03; IC50 (M-Hela): 25.5 ± 1.6 µM
